The text below walks through data of patent US8188085B2, “Antifungal agents” (Merck Sharp & Dohme Corp., priority 2008, dated 2012).

Chain of glucan synthase (GS) prepared from Candida albicans MY1055 (O13428 1-1897): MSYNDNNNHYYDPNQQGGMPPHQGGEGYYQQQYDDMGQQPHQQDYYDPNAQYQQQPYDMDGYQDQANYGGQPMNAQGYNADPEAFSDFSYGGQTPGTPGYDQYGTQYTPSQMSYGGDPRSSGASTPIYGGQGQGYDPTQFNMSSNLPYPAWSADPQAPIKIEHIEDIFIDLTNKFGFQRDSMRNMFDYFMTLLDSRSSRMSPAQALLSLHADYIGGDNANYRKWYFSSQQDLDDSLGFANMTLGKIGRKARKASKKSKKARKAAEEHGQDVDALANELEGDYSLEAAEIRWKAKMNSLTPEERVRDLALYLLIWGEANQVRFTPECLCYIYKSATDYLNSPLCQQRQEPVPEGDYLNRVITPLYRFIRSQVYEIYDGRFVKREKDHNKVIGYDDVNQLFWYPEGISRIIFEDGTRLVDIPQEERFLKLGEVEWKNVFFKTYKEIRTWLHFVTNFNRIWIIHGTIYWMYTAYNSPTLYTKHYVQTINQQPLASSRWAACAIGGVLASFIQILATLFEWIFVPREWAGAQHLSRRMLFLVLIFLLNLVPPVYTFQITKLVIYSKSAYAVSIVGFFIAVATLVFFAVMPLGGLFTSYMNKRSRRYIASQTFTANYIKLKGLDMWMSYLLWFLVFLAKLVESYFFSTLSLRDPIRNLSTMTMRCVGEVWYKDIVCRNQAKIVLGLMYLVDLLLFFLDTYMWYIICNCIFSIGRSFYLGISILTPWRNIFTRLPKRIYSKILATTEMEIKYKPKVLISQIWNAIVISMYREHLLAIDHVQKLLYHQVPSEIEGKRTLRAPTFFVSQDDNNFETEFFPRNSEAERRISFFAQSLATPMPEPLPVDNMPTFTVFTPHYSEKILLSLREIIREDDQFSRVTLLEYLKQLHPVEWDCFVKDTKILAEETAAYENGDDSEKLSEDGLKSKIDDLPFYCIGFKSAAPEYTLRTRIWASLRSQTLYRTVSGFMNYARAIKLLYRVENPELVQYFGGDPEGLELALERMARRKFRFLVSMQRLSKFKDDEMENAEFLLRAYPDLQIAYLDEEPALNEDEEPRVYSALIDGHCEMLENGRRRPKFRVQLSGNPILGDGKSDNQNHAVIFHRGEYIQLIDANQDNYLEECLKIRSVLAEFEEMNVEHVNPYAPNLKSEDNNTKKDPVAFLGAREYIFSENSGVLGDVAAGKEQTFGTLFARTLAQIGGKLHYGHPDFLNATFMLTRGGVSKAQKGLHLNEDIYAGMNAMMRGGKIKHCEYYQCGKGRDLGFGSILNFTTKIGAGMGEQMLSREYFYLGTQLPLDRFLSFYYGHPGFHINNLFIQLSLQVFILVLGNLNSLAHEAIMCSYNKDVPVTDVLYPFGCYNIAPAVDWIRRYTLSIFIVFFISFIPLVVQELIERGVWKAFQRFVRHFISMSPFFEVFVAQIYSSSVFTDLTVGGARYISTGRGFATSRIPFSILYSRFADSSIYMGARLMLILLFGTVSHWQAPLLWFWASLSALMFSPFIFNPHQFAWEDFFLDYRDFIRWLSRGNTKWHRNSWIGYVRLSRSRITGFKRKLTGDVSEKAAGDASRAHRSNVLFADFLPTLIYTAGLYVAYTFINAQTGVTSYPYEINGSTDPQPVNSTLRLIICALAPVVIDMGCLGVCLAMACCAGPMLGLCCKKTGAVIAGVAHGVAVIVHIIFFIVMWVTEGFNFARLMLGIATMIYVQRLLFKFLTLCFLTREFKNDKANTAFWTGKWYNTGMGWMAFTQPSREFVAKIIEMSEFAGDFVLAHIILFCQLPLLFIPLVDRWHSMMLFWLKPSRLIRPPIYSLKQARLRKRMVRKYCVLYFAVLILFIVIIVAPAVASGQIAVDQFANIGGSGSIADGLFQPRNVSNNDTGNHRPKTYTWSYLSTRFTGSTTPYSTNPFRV

In this assay the target is glucan synthase (GS) prepared from Candida albicans MY1055 (Candida albicans, UniProt O13428). The assay is described as follows: Glucan synthase inhibition (polymerization assay, 96-well). As to conditions: GS from C. albicans MY1055; 60 min incubation at 22° C.; read-out: Candida Albicans GS IC50 (converted). Type of assay: biochemical. Summed up:
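Partially purified glucan synthase from C. albicans MY1055 membranes incorporated 0.5 mM ³H-UDPG with 25 μM GTP-γ-S, HEPES pH 7.5, over 60 min at 22 °C. TCA-precipitated glucan was counted by scintillation. IC50 (ng/mL) came from sigmoidal fits of duplicate 3-fold dilution series.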
Turning to `CCC(N)(CC)CO[C@H]1[C@H](n2ncnc2-c2ccncc2)C[C@@]23COC[C@]1(C)[C@@H]2CC[C@H]1C3=CC[C@@]2(C)[C@H](C(=O)O)[C@@](C)([C@H](C)C(C)C)CC[C@]12C` [Example 241, (1S,4aR,6aS,7R,8R,10aR,10bR,12aR,14R,15R)-15-(2-amino-2-ethylbutoxy)-8-[(1R)-1,2-dimethylpropyl]-14-[5-(4-pyridinyl)-1H-1,2,4-triazol-1-yl]-1,6,6a,7,8,9,10,10a,10b,11,12,12a-dodecahydro-1,6a,8,10a-tetramethyl-4H-1,4a-propano-2H-phenanthro[1,2-c]pyran-7-carboxylic acid], the IC50 (as a rule, the concentration that gives 50% inhibition) was 1.4 nM.

Consider `CC(C)[C@@H](C)[C@@]1(C)CC[C@]2(C)[C@H]3CC[C@@H]4[C@@]5(COC[C@@]4(C)[C@@H](OC[C@](C)(N)C(C)C)[C@H](n4ncnc4-c4ccc6ccccc6c4)C5)C3=CC[C@@]2(C)[C@@H]1C(=O)O` [Example 158, (1S,4aR,6aS,7R,8R,10aR,10bR,12aR,14R,15R)-15-[[(2R)-2-amino-2,3-dimethylbutyl]oxy]-8-[(1R)-1,2-dimethylpropyl]-14-[5-(2-naphthalenyl)-1H-1,2,4-triazol-1-yl]-1,6,6a,7,8,9,10,10a,10b,11,12,12a-dodecahydro-1,6a,8,10a-tetramethyl-4H-1,4a-propano-2H-phenanthro[1,2-c]pyran-7-carboxylic acid], for which the IC50 was 20.9 nM.

Regarding `CC(C)[C@@H](C)[C@@]1(C)CC[C@]2(C)[C@H]3CC[C@@H]4[C@@]5(COC[C@@]4(C)[C@@H](OC[C@](C)(N)C(C)C)[C@H](n4cccn4)C5)C3=CC[C@@]2(C)[C@@H]1C(=O)O` [Example 291, (1S,4aR,6aS,7R,8R,10aR,10bR,12aR,14R,15R)-15-[[(2R)-2-amino-2,3-dimethylbutyl]oxy]-8-[(1R)-1,2-dimethylpropyl]-14-(1H-pyrazol-1-yl)-1,6,6a,7,8,9,10,10a,10b,11,12,12a-dodecahydro-1,6a,8,10a-tetramethyl-4H-1,4a-propano-2H-phenanthro[1,2-c]pyran-7-carboxylic acid], the IC50 was 54.9 nM.

On to `CC(C)[C@@H](C)[C@@]1(C)CC[C@]2(C)[C@H]3CC[C@@H]4[C@@]5(COC[C@@]4(C)[C@@H](OCC(C)(C(C)C)N(C)C)[C@H](n4cnc(Cl)n4)C5)C3=CC(=O)[C@@]2(C)[C@@H]1C(=O)O` (stereo partly drawn) [Example 9C, (1S,4aR,6aS,7R,8R,10aR,10bR,12aR,14R,15R)-14-(3-chloro-1H-1,2,4-triazol-1-yl)-15-[2-(dimethylamino)-2,3-dimethylbutoxy]-8-[(1R)-1,2-dimethylpropyl]-1,6,6a,7,8,9,10,10a,10b,11,12,12a-dodecahydro-1,6a,8,10a-tetramethyl-6-oxo-4H-1,4a-propano-2H-phenanthro[1,2-c]pyran-7-carboxylic acid], for which the IC50 was 74.1 nM.

For `CC(C)[C@@H](C)[C@@]1(C)CC[C@]2(C)[C@H]3CC[C@@H]4[C@@]5(COC[C@@]4(C)[C@@H](OC[C@](C)(N)C(C)C)[C@H](n4ncnc4-c4ccoc4)C5)C3=CC[C@@]2(C)[C@@H]1C(=O)O` [Example 144, (1S,4aR,6aS,7R,8R,10aR,10bR,12aR,14R,15R)-15-[[(2R)-2-amino-2,3-dimethylbutyl]oxy]-8-[(1R)-1,2-dimethylpropyl]-14-[5-(3-furanyl)-1H-1,2,4-triazol-1-yl]-1,6,6a,7,8,9,10,10a,10b,11,12,12a-dodecahydro-1,6a,8,10a-tetramethyl-4H-1,4a-propano-2H-phenanthro[1,2-c]pyran-7-carboxylic acid], the IC50 is 8.51 nM.

For the compound `CC(C)[C@@H](C)[C@@]1(C)CC[C@]2(C)[C@H]3CC[C@@H]4[C@@]5(COC[C@@]4(C)[C@@H](OC[C@](C)(N)C(C)C)[C@H](n4ncnc4N)C5)C3=CC[C@@]2(C)[C@@H]1C(=O)O` [Example 31, (1S,4aR,6aS,7R,8R,10aR,10bR,12aR,14R,15R)-15-[[(2R)-2-amino-2,3-dimethylbutyl]oxy]-14-(5-amino-1H-1,2,4-triazol-1-yl)-8-[(1R)-1,2-dimethylpropyl]-1,6,6a,7,8,9,10,10a,10b,11,12,12a-dodecahydro-1,6a,8,10a-tetramethyl-4H-1,4a-propano-2H-phenanthro[1,2-c]pyran-7-carboxylic acid], the IC50 was 15.3 nM.

In the case of `CN[C@@](C)(CO[C@H]1[C@H](n2nccc2-c2ccncc2)C[C@@]23COC[C@]1(C)[C@@H]2CC[C@H]1C3=CC[C@@]2(C)[C@H](C(=O)O)[C@@](C)([C@H](C)C(C)C)CC[C@]12C)C(C)C` [Example 312, (1S,4aR,6aS,7R,8R,10aR,10bR,12aR,14R,15R)-15-[[(2R)-2,3-dimethyl-2-(methylamino)butyl]oxy]-8-[(1R)-1,2-dimethylpropyl]-14-[5-(4-pyridinyl)-1H-pyrazol-1-yl]-1,6,6a,7,8,9,10,10a,10b,11,12,12a-dodecahydro-1,6a,8,10a-tetramethyl-4H-1,4a-propano-2H-phenanthro[1,2-c]pyran-7-carboxylic acid], the IC50 was 17.8 nM.

Consider `CC(C)[C@@H](C)[C@@]1(C)CC[C@]2(C)[C@H]3CC[C@@H]4[C@@]5(COC[C@@]4(C)[C@@H](OC[C@](C)(N)C(C)(C)C)[C@H](n4ncnc4S(N)(=O)=O)C5)C3=CC[C@@]2(C)[C@@H]1C(=O)O` [Example 123C, (1S,4aR,6aS,7R,8R,10aR,10bR,12aR,14R,15R)-14-[5-(aminosulfonyl)-1H-1,2,4-triazol-1-yl]-15-[[(2R)-2-amino-2,3,3-trimethylbutyl]oxy]-8-[(1R)-1,2-dimethylpropyl]-1,6,6a,7,8,9,10,10a,10b,11,12,12a-dodecahydro-1,6a,8,10a-tetramethyl-4H-1,4a-propano-2H-phenanthro[1,2-c]pyran-7-carboxylic acid], for which the IC50 was 5.46 nM.

Consider `CC(C)[C@@H](C)[C@@]1(C)CC[C@]2(C)[C@H]3CC[C@@H]4[C@@]5(COC[C@@]4(C)[C@@H](OC[C@](C)(N)C(C)(C)C)[C@H](n4ncnc4C(N)=O)C5)C3=CC[C@@]2(C)[C@@H]1C(=O)O` [Example 44, (1S,4aR,6aS,7R,8R,10aR,10bR,12aR,14R,15R)-14-[5-(aminocarbonyl)-1H-1,2,4-triazol-1-yl]-15-[[(2R)-2-amino-2,3,3-trimethylbutyl]oxy]-8-[(1R)-1,2-dimethylpropyl]-1,6,6a,7,8,9,10,10a,10b,11,12,12a-dodecahydro-1,6a,8,10a-tetramethyl-4H-1,4a-propano-2H-phenanthro[1,2-c]pyran-7-carboxylic acid], for which the IC50 is 4.31 nM.

`CC(C)[C@@H](C)[C@@]1(C)CC[C@]2(C)[C@H]3CC[C@@H]4[C@@]5(COC[C@@]4(C)[C@@H](OC[C@](C)(N)C(C)C)[C@H](n4ncnc4-c4ccc(N)cc4)C5)C3=CC[C@@]2(C)[C@@H]1C(=O)O` [Example 200, (1S,4aR,6aS,7R,8R,10aR,10bR,12aR,14R,15R)-15-[[(2R)-2-amino-2,3-dimethylbutyl]oxy]-14-[5-(4-aminophenyl)-1H-1,2,4-triazol-1-yl]-8-[(1R)-1,2-dimethylpropyl]-1,6,6a,7,8,9,10,10a,10b,11,12,12a-dodecahydro-1,6a,8,10a-tetramethyl-4H-1,4a-propano-2H-phenanthro[1,2-c]pyran-7-carboxylic acid]: the half-inhibitory concentration (IC50) is 8.22 nM.
